Measured values published in patent publication US9910031B2, “Compositions and methods for modulating c-Rel-dependent cytokine production” (Synta Pharmaceuticals Corporation, priority 2003, dated 2018).

Columns and labels:
Type in all cases: cell-based, human
ICSBP = experiment: Western blot of ICSBP in THP-1 nuclear extracts (Ets-2 DNA element beads)
Excerpt: (§1) Of the transcription factors that have been analyzed, two factors, ICSBP and c-Rel, seem to be affected by Compound 1/Compound 2 treatment. ICSBP binds indirectly to the Ets-2 site. The primary NFκB trans-activator for IL-12 is the c-Rel/p50 heterodimer. Other dimers (p65/p50 and p50/p50) either lack activity or have inhibitory functions. Thus, c-Rel plays a role in IL-12 transcription as a result of both activation through NFκB and its interaction with ICSBP. […] The membranes were blocked with 5% milk in TBST buffer and then incubated with anti-c-Rel, anti-p65, anti-p50, anti-ICSBP or anti-PU-1 antibody (all the antibodies were purchased from Santa Cruz) at a dilution of 1:500 for 1 h at room temperature or overnight at 4° C. The membranes were washed and incubated with Horseradish Peroxidase-conjugated anti-rabbit IgG or anti-mouse IgG (Amersham, England) at a dilution of 1:2000 at room temperature for 1 h.
The transcription factor ICSBP binds to the Ets-2 element indirectly through binding to PU-1. Nuclear extracts were bound to Ets-2 DNA element beads, the beads isolated to separate bound from free protein, and the proteins analyzed on Western blots using antibodies to either ICSBP or PU-1. Conjugation of Ets-2 DNA to beads was accomplished by the following method. Biotinylated DNA fragment encompassing the IL-12 p40 Ets-2 site (−292 to −196) were synthesized from the 1.3 kb wild-type human IL-12 p40 reporter by PCR using a biotinylated primer as detailed in The Journal of Immunology, 2000, vol 165. pages 271-279. PCR products were purified by the Qiaquick Kit (Qiagen, Chatsworth, Calif.). Two μg of biotinylated DNA were conjugated to 100 μl of streptavidin-hound magnetic beads (Dynabeads, M280, Dynal, Lake Success, N.Y.) in buffer containing 10 mM Tris-HCL, pH 8.0, 1 mM EDTA, 0.1 M NaCl. […] Eluted materials were separated by 10% SDS-PAGE and detected by immunoblot analysis using anti-ICSBP or anti-PU-1 antibody.

c-Rel = experiment: Western blot of nuclear c-Rel in THP-1 cells
Excerpt: (§2) In order to understand this changes, the subcellular localization of NF-κB proteins was investigated using western blot analysis.
as §1
THP-1 cells were suspended in 20 volumes of buffer A containing 10 mM KCl, 10 mM HEPES (pH 7.9), 1 mM MgCl2, 1 mM dithiothreitol (DTT), 0.1% Nonidet p40 (NP-40), and 0.5 mM phenylmethylsulfonyl fluoride (PMSF) and homogenized and centrifuged at 10,000 rpm at 4 C for 5 min. […]

p65 = experiment: Western blot of nuclear p65 in THP-1 cells
Excerpt: as §2, §1
Compound 2 impairs nuclear translocation of c-Rel and p50. We examined the nuclear translocation kinetics of NF-kB family members in LPS stimulated cells treated with Compound 2. THP1 cells were stimulated with LPS in either the presence or absence of 100 nM Compound 2, and the distribution of the NF-κB Rel family members are determined by immunoblotting nuclear (n.p.) extracts collected at 5 min, 15 min, 30 min, 1 h, 3 h and 6 h post-treatment. In response to LPS stimulation, p50 translocated into the nucleus as early as 5 minutes post-stimulation and accumulates as time goes on (FIG. 7, immunoblots and FIG. 8 densitometry). […] The experiment examining p65 nuclear translocation is shown in FIG. 9 (immunoblots) and FIG. 10 (densitometry). In LPS stimulated cells, p65 translocated into the nucleus as early as 5 minutes post-stimulation and accumulated to maximum levels at 15-30 minutes post-stimulation. Treatment of LPS-stimulated cells with Compound 2 had no effect on the kinetics of p65 nuclear entry.
THP-1 cells were suspended in 20 volumes of buffer A containing 10 mM KCl, 10 mM HEPES (pH 7.9), 1 mM MgCl2, 1 mM dithiothreitol (DTT), 0.1% Nonidet p40 (NP-40), and 0.5 mM phenylmethylsulfonyl fluoride (PMSF) and homogenized and centrifuged at 10,000 rpm at 4 C for 5 min. Nuclear pellets were then suspended in buffer C containing 400 mM NaCl, 20 mM HEPES 9 pH 7.9), 15 mM MgCl2, 0.2 mM EDTA, 1 mM DTT, 25% glycerol, 1 mM PMSF, and 10 ug of leupeptin, 20 ug of pepstatin, and 10 ug/ml antipain, incubated for 30 min at 4 C, and centrifuged at 14,000 rpm for 20 min. The supernatants were dialyzed against buffer D containing 100 mM NaCl, 20 mM HEPES (pH 7.9), 20% glycerol, 1 mM PMSF, and 1 mM DTT. […]

[1] = 500 nM, 3 hr, relative to untreated cells
[2] = THP1, IFN-γ plus LPS or IFN-γ plus SAC

SMILES: C(=NNc1nc(OCCc2ccccn2)nc(N2CCOCC2)n1)c1c[nH]c2ccccc12 [Compound 1, N-(1H-indol-3-ylmethylene)-N′-[4-morpholin-4-yl-6-(2-pyridin-2-yl-ethoxy)-[1,3,5]triazin-2-yl]-hydrazine]
- amount of ICSBP protein in nuclear extracts (FIG. 5) (ICSBP; THP-1 cells): significant reduction

SMILES: Cc1cccc(C=NNc2cc(N3CCOCC3)nc(OCCc3ccccn3)n2)c1 [Compound 2, N-(3-methyl-benzylidene)-N′-[6-morpholin-4-yl-2-(2-pyridin-2-yl-ethoxy)-pyrimidin-4-yl]-hydrazine]
- amount of c-Rel protein in nuclear (c-Rel; [1]): decreased
- nuclear c-Rel level (FIG. 4) (c-Rel; [2]): significantly reduced
- amount of p65 in nuclear (p65; [1]): significantly increased
- nuclear p65 protein (FIG. 4) (p65; [2]): increased
- kinetics of p65 nuclear entry (p65; THP1, LPS, 100 nM): no effect
- level of nuclear p65 (p65; THP1, LPS, 100 nM, 6 hours, relative to untreated cells): small increase
- ICSBP expression (ICSBP): reduced
- ICSBP in the nuclei of treated cells (ICSBP): reduced
